The nature of data set [1]: Comparison of R isomer and racemic baclofen for solubility, stability and pH. In kind it is physicochemical. To be noted: data not shown. The text has this:
Accordingly, the Examples presented herein, which employed a racemic mixture, are also applicable to the L-isomer […].

The nature of data set [2]: pH profile of baclofen prior to steam sterilization and 4-CPP impurity levels post-steam sterilization. On the set-up: unit not given here. Particulars: 4-CPP post-steam sterilization. In kind it is physicochemical. The text has this:
In some embodiments, the present application provides methods and baclofen formulations having low 4-CPP concentrations by controlling the pH of the baclofen solution prior to steam sterilization, where the pH is in the range of between about 4.0 to about 7.0, the amount of 4-CPP formed is reduced, when the pH is raised to between about 5.0 to about 7.0 after heat sterilization. In some embodiments, the 4-CPP impurity levels are low at a pH of between about 4.0 to about 4.5. The pH profile of the baclofen, prior to steam sterilization and the 4-CPP impurity levels post-steam sterilization are shown below in Table A.

The nature of data set [3]: Stability of baclofen in sulfate or phosphate solutions over 9 weeks. Format: physicochemical. To be noted: phosphate or sulfate buffer with NaCl, pH 6, aqueous buffer. The method, then:
The formulations were stored at 37° C., ambient temperature, and 4° C. over 9 weeks. pH, drug concentration, and 4-CPP were measured. Physical properties, such as particulate, precipitation, color and the like were observed.

The conditions of data set [4]: reported by some sources; equilibrium with particulate baclofen present; cited from earlier work.
For data set [5] the following is noted: therapeutically effective intrathecal concentrations, injected into the intrathecal space of a patient; cited from earlier work.
Data set [6] is described as follows: Rotarod (impaired motor skills) after intrathecal delivery to rats. In kind it is in vivo. Particulars: equivalent doses, data not shown. How it is done:
Studies were performed to examine the effects of different baclofen compositions delivered intrathecally to rats. In one study, the therapeutic response mediated by spinal GABA-b receptors (thermal analgesia) with a nonspecific side effect (impaired motor skills on the rotarod) caused by L or DL-baclofen were compared. Equivalent doses of L-baclofen and DL-baclofen (adjusted to deliver the same amount of L-baclofen) produced very similar analgesic activity in the thermal nociception assay, while D-baclofen was ineffective (data not shown).
On the technique in general: The rotarod test checks motor coordination on a turning rod.

Where only a bound is given, the exact number is not on record here.

As for `NC[C@H](CC(=O)O)c1ccc(Cl)cc1` (single isomer, unassigned) [R isomer], the “solubility, stability and pH relative to racemic mixtures of baclofen” value in data set [1] is on record as “behave essentially the same”.

By solubility is commonly meant how much of the substance goes into solution per volume. For `NCC(CC(=O)O)c1ccc(Cl)cc1` (stereo not shown) [Baclofen, 4-amino-3-(p-chlorophenyl)butyric acid], the “Impurity Level of 4-CPP” value in data set [2] (pH 4.0 prior to steam sterilization) is given as 1.7; in data set [2] (pH 4.2 prior to steam sterilization), 1.3; in data set [2] (pH 4.4 prior to steam sterilization), 1.1; in data set [2] (pH 4.6 prior to steam sterilization) it was 0.7; in data set [2] (pH 4.8 prior to steam sterilization), 0.5; in data set [2] (pH 5.0 prior to steam sterilization), 0.4. For the same molecule, the “Impurity Level of 4-CPP” value in data set [2] (pH 5.2 prior to steam sterilization) worked out at 0.4; in data set [2] (pH 5.4 prior to steam sterilization), 0.5; in data set [2] (pH 5.6 prior to steam sterilization) it was 0.6; in data set [2] (pH 5.8 prior to steam sterilization), 0.7; in data set [2] (pH 6.0 prior to steam sterilization), 0.8; in data set [2] (pH 6.2 prior to steam sterilization), 0.9. Moreover, the “Impurity Level of 4-CPP” value in data set [2] (pH 6.4 prior to steam sterilization) is 1.1; in data set [2] (pH 6.6 prior to steam sterilization), 1.2; in data set [2] (pH 6.8 prior to steam sterilization), 1.4; in data set [2] (pH 7.0 prior to steam sterilization), 1.5. The same molecule yielded a solubility at 9 weeks in data set [3] of no less than 4000 µg/mL. For the same molecule, the “upper limit on room temperature aqueous solubility” value in data set [4] is listed as “about 4 mg/mL”. Besides, the “plasma concentrations, intrathecal relative to oral administration” value in data set [5] is 100 times less.

As for `NC[C@H](CC(=O)O)c1ccc(Cl)cc1` [D-baclofen], the “motor impairment on the rotarod” value in data set [6] is listed as “no significant effect”.

Turning to `NC[C@H](CC(=O)O)c1ccc(Cl)cc1` [L-baclofen], the “motor impairment on the rotarod” value in data set [6] was “statistically less motor impairment on the rotarod than DL-baclofen”.
